Reference: ChEMBL document CHEMBL1158467, “In vitro intrinsic clearance-based optimization of N3-phenylpyrazinones as corticotropin-releasing factor-1 (CRF1) receptor antagonists” (J Med Chem, 2009)

Legend:
[1] = Intrinsic clearance in human liver microsomes at 1 uM; format: ADME, Microsome
[2] = biological target: T1, Corticotropin-releasing factor receptor 1 (Rattus norvegicus, UniProt P35353); assay: Displacement of [125I]ovine-CRF from CRF1 receptor in rat frontal cortex by rapid filtration technique; format: tissue-based
T1 sequence (P35353 whole entry): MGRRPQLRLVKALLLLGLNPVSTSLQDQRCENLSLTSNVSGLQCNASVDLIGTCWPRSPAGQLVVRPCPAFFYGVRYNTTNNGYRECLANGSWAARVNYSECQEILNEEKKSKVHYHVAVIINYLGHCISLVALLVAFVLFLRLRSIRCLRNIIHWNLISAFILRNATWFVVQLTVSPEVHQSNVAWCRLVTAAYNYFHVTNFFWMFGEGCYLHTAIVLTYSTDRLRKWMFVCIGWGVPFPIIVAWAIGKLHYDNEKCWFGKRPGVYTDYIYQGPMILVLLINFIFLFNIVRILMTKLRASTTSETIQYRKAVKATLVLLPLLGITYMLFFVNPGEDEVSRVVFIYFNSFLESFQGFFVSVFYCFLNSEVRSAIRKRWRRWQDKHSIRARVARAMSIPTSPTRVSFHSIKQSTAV

Row | SMILES | CLint scaled at 1 µM [1] [mL/min/kg] | IC50 [2] [nM]
1 | COc1cc(C)c(Nc2nc(Cl)cn([C@H](C)C3CC3)c2=O)cc1OC | 100 | 15
2 | C[C@H](C1CC1)n1cc(Cl)nc(Nc2c(Cl)cc(Cl)cc2C#N)c1=O |  | 18
3 | CC[C@H](C1CC1)n1cc(Cl)nc(Nc2c(C)cc(Cl)cc2Cl)c1=O | 210 | 
4 | COc1cc(C)c(Nc2nc(Cl)cn([C@H](C)C3CC3)c2=O)cc1C | 61 | 
5 | C[C@H](C1CC1)n1cc(Cl)nc(Nc2c(Cl)cc(OC(F)(F)F)cc2Cl)c1=O | 30 | 6.5
6 | COc1cc(Cl)c(Nc2nc(Cl)cn([C@H](C)C3CC3)c2=O)c(Cl)c1 | 130 | 
7 | COc1cc(Cl)c(C)cc1Nc1nc(Cl)cn([C@H](C)C2CC2)c1=O |  | 36
8 | CC[C@H](C1CC1)n1cc(Cl)nc(Nc2c(Cl)cc(C#N)cc2Cl)c1=O | 160 | 
9 | C[C@@H](C1CC1)n1cc(Cl)nc(Nc2c(Cl)cc(C(F)(F)F)cc2Cl)c1=O |  | 7.9
10 | COC[C@@H](C)n1cc(Cl)nc(Nc2c(Cl)cc(C(F)(F)F)cc2Cl)c1=O | 32 | 11
11 | CC[C@H](C1CC1)n1cc(Cl)nc(Nc2c(C)cc(C)cc2C)c1=O | 340 | 
12 | C[C@H](C1CC1)n1cc(Cl)nc(Nc2c(Cl)cc(S(C)(=O)=O)cc2Cl)c1=O |  | 63
13 | Cc1cc(C)c(Nc2nc(Cl)cn([C@H](C)C3CC3)c2=O)c(C)c1 | 180 | 
14 | Cc1cc(C)c(Nc2nc(Cl)cn([C@H](C)C3CC3)c2=O)cc1C |  | 4.8
15 | C[C@H](C1CC1)n1cc(Cl)nc(Nc2cc3c(cc2Cl)OCC3)c1=O |  | 120
16 | COCC(COC)n1cc(Cl)nc(Nc2c(Cl)cc(C(F)(F)F)cc2Cl)c1=O | 53 | 8.5
17 | COc1cc(Cl)c(Nc2nc(Cl)cn([C@H](C)C3CC3)c2=O)cc1F | 180 | 8.2
18 | Cc1cc(Cl)c(Nc2nc(Cl)cn([C@H](C)C3CC3)c2=O)cc1C#N | 160 | 19
19 | COC[C@@H](C)n1cc(Cl)nc(Nc2c(Cl)cc(C#N)cc2Cl)c1=O | 35 | 18

Continued, values first:

Row | CLint scaled at 1 µM [1] [mL/min/kg] | IC50 [2] [nM] | SMILES
20 | 89 | 1.3 | CC[C@H](C1CC1)n1cc(Cl)nc(Nc2c(Cl)cc(C(F)(F)F)cc2Cl)c1=O
21 | 210 | 1.7 | CC[C@H](COC)n1cc(Cl)nc(Nc2c(Cl)cc(C#N)cc2Cl)c1=O
22 | 110 | 3.7 | CCCC(CCC)n1cc(Cl)nc(Nc2c(Cl)cc(C(F)(F)F)cc2Cl)c1=O
23 | 44 | 1.2 | Cc1cc(Cl)cc(Cl)c1Nc1nc(Cl)cn([C@H](C)C2CC2)c1=O
24 | 64 | 1.6 | COC[C@@H](C1CC1)n1cc(Cl)nc(Nc2c(Cl)cc(C(F)(F)F)cc2Cl)c1=O
25 | 77 | 1.8 | CC[C@H](C1CC1)n1cc(Cl)nc(Nc2c(Cl)cc(OC(F)(F)F)cc2Cl)c1=O
26 | 140 | 0.98 | Cc1cc(C)c(Nc2nc(Cl)cn([C@H](C)C3CC3)c2=O)c(Cl)c1
27 | 400 | 0.44 | CC[C@H](C1CC1)n1cc(Cl)nc(Nc2c(Cl)cc(OC)cc2Cl)c1=O
28 | 150 | 2.3 | CC[C@H](COC)n1cc(Cl)nc(Nc2c(Cl)cc(C(F)(F)F)cc2Cl)c1=O
29 | 32 | 1.2 | CCOc1cc(C)c(Nc2nc(Cl)cn([C@H](C)C3CC3)c2=O)cc1C
30 | 22 | 0.46 | C[C@H](C1CC1)n1cc(Cl)nc(Nc2c(Cl)cc(OC(F)F)cc2Cl)c1=O
31 |  | 0.91 | C[C@H](C1CC1)n1cc(Cl)nc(Nc2c(Cl)cc(Cl)cc2Cl)c1=O
